From ChEMBL document CHEMBL5528016, “Design, synthesis and evaluation of novel deferasirox derivatives with high antifungal potency in vitro and in vivo” (Eur J Med Chem, 2024)
Values after ≈ are worked out from the molar mass of the structure shown.

Experiments:
[1] = system: Cryptococcus neoformans; assay: Antifungal activity against Cryptococcus neoformans H99 assessed as reduction in fungal growth incubated for 72 hrs by broth microdilution method; type: functional
[2] = system: Candida parapsilosis; assay: Antifungal activity against Candida parapsilosis ATCC 22019 assessed as reduction in fungal growth incubated for 72 hrs by broth microdilution method; type: functional; details: Lodderomyces parapsilosis
[3] = system: [Candida] auris; assay: Antifungal activity against Candida auris D12 assessed as reduction in fungal growth incubated for 72 hrs by broth microdilution method; type: functional; details: Candidozyma auris
[4] = system: Nakaseomyces glabratus; assay: Antifungal activity against Candida glabrata 537 assessed as reduction in fungal growth incubated for 72 hrs by broth microdilution method; type: functional
[5] = system: Candida albicans; assay: Antifungal activity against Candida albicans SC5314 assessed as reduction in fungal growth incubated for 72 hrs by broth microdilution method; type: functional
[6] = system: Pichia kudriavzevii; assay: Antifungal activity against Pichia kudriavzevii 4946 assessed as reduction in fungal growth incubated for 72 hrs by broth microdilution method; type: functional
[7] = system: Candida tropicalis; assay: Antifungal activity against Candida tropicalis 2718 assessed as reduction in fungal growth incubated for 72 hrs by broth microdilution method; type: functional
[8] = Metabolic stability in mouse liver microsomes assessed as intrinsic clearance; type: ADME, Microsome; details: read-out: CLH
[9] = Metabolic stability in mouse liver microsomes assessed as elimination rate constant; type: ADME, Microsome
[10] = Metabolic stability in mouse liver microsomes assessed as half life; type: ADME, Microsome
[11] = system: Cryptococcus neoformans; assay: Potency index, ratio of deferasirox MIC to test compound for antifungal activity against Cryptococcus neoformans H99 incubated for 72 hrs by broth microdilution method; type: functional

O=C(NCc1ccncc1)c1ccc(-n2nc(-c3ccccc3O)nc2-c2ccccc2O)cc1
MIC [1]: 4 µg/mL (≈ 8.63 µM)

CN1CCOC(CNC(=O)c2ccc(-n3nc(-c4ccccc4O)nc3-c3ccccc3O)cc2)C1 (configuration not stated)
MIC [2]: 32 µg/mL (≈ 65.9 µM)
MIC [1]: 0.5 µg/mL (≈ 1.03 µM)
MIC [3]: > 64 µg/mL
MIC [4]: < 0.125 µg/mL
MIC [5]: 2 µg/mL (≈ 4.12 µM)
MIC [6]: 4 µg/mL (≈ 8.24 µM)
MIC [7]: 1 µg/mL (≈ 2.06 µM)

CC(C)(O)CNC(=O)c1ccc(-n2nc(-c3ccccc3O)nc2-c2ccccc2O)cc1
MIC [1]: 2 µg/mL (≈ 4.5 µM)

O=C(NCCN1CCOCC1)c1cccc(-n2nc(-c3ccccc3O)nc2-c2ccccc2O)c1
MIC [1]: 1 µg/mL (≈ 2.06 µM)

C[N+]1(CCNC(=O)c2ccc(-n3nc(-c4ccccc4O)nc3-c3ccccc3O)cc2)CCOCC1.[I-]
MIC [1]: 4 µg/mL

O=C(O)c1cccc(-n2nc(-c3ccccc3O)nc2-c2ccccc2O)c1
MIC [1]: 4 µg/mL (≈ 10.7 µM)

O=C(NC1CCS(=O)(=O)C1)c1cccc(-n2nc(-c3ccccc3O)nc2-c2ccccc2O)c1 (configuration not stated)
MIC [1]: 4 µg/mL (≈ 8.15 µM)

O=C(NCCNc1ncccn1)c1ccc(-n2nc(-c3ccccc3O)nc2-c2ccccc2O)cc1
MIC [2]: > 64 µg/mL
MIC [1]: 0.5 µg/mL (≈ 1.01 µM)
MIC [3]: > 64 µg/mL
MIC [4]: 1 µg/mL (≈ 2.03 µM)
MIC [5]: 32 µg/mL (≈ 64.8 µM)
MIC [6]: 16 µg/mL (≈ 32.4 µM)
MIC [7]: 8 µg/mL (≈ 16.2 µM)

O=C(N[C@@H]1CCOC1)c1ccc(-n2nc(-c3ccccc3O)nc2-c2ccccc2O)cc1
MIC [1]: 4 µg/mL (≈ 9.04 µM)

Cc1ncc2n1-c1ccc(Cl)cc1C(c1ccccc1F)=NC2 [MIDAZOLAM]
microsomal CLint [8]: 742 µL/min/mg
k el [9]: 0.00247 s⁻¹
half-life [10]: 4.67 min

O=C(Nc1ccccc1)c1ccc(-n2nc(-c3ccccc3O)nc2-c2ccccc2O)cc1
MIC [1]: 4 µg/mL (≈ 8.92 µM)

O=C(NCC(O)c1ccccc1)c1ccc(-n2nc(-c3ccccc3O)nc2-c2ccccc2O)cc1 (configuration not stated)
MIC [1]: 4 µg/mL (≈ 8.12 µM)

O=C(NCCCC(F)(F)F)c1ccc(-n2nc(-c3ccccc3O)nc2-c2ccccc2O)cc1
MIC [1]: 8 µg/mL (≈ 16.6 µM)

CS(=O)(=O)CCNC(=O)c1ccc(-n2nc(-c3ccccc3O)nc2-c2ccccc2O)cc1
MIC [1]: 1 µg/mL (≈ 2.09 µM)

O=C(NNCc1ccccc1)c1ccc(-n2nc(-c3ccccc3O)nc2-c2ccccc2O)cc1
MIC [1]: 8 µg/mL (≈ 16.8 µM)

O=C(N[C@H]1CCOC1)c1ccc(-n2nc(-c3ccccc3O)nc2-c2ccccc2O)cc1
MIC [1]: 4 µg/mL (≈ 9.04 µM)

O=C(NCc1ccco1)c1ccc(-n2nc(-c3ccccc3O)nc2-c2ccccc2O)cc1
MIC [1]: 4 µg/mL (≈ 8.84 µM)

NC(=O)c1ccc(-n2nc(-c3ccccc3O)nc2-c2ccccc2O)cc1
MIC [1]: 4 µg/mL (≈ 10.7 µM)

O=C(NCCc1ccccn1)c1ccc(-n2nc(-c3ccccc3O)nc2-c2ccccc2O)cc1
MIC [2]: > 64 µg/mL
MIC [1]: 0.5 µg/mL (≈ 1.05 µM)
MIC [3]: > 64 µg/mL
MIC [4]: < 0.125 µg/mL
MIC [5]: 32 µg/mL (≈ 67 µM)
MIC [6]: 4 µg/mL (≈ 8.38 µM)
MIC [7]: 64 µg/mL (≈ 134 µM)

O=C(NC1CCS(=O)(=O)CC1)c1ccc(-n2nc(-c3ccccc3O)nc2-c2ccccc2O)cc1
MIC [1]: 4 µg/mL (≈ 7.93 µM)

CCCCNC(=O)c1ccc(-n2nc(-c3ccccc3O)nc2-c2ccccc2O)cc1
MIC [1]: 4 µg/mL (≈ 9.34 µM)

O=C(NCCc1ccccc1)c1ccc(-n2nc(-c3ccccc3O)nc2-c2ccccc2O)cc1
MIC [1]: 8 µg/mL (≈ 16.8 µM)

O=C(c1ccc(-n2nc(-c3ccccc3O)nc2-c2ccccc2O)cc1)N1CCOCC1
MIC [1]: 4 µg/mL (≈ 9.04 µM)

O=C(NCCN1CCOCC1)c1ccc(-n2nc(-c3ccccc3O)nc2-c2ccccc2O)cc1
MIC [2]: 64 µg/mL (≈ 132 µM)
MIC [1]: 0.5 µg/mL (≈ 1.03 µM)
MIC [3]: > 64 µg/mL
MIC [4]: < 0.125 µg/mL
MIC [5]: 32 µg/mL (≈ 65.9 µM)
MIC [6]: 8 µg/mL (≈ 16.5 µM)
MIC [7]: 4 µg/mL (≈ 8.24 µM)

CN1CCC(CNC(=O)c2ccc(-n3nc(-c4ccccc4O)nc3-c3ccccc3O)cc2)CC1
MIC [1]: 4 µg/mL (≈ 8.27 µM)

O=C(NCc1ccccn1)c1ccc(-n2nc(-c3ccccc3O)nc2-c2ccccc2O)cc1
MIC [1]: 8 µg/mL (≈ 17.3 µM)

O=C(NCCN1CCCCC1)c1ccc(-n2nc(-c3ccccc3O)nc2-c2ccccc2O)cc1
MIC [1]: 1 µg/mL (≈ 2.07 µM)

CCNC(=O)c1ccc(-n2nc(-c3ccccc3O)nc2-c2ccccc2O)cc1
MIC [1]: 1 µg/mL (≈ 2.5 µM)

O=C(NCCCN1CCOCC1)c1cccc(-n2nc(-c3ccccc3O)nc2-c2ccccc2O)c1
MIC [1]: 2 µg/mL (≈ 4 µM)

O=C(NC1CS(=O)(=O)C1)c1ccc(-n2nc(-c3ccccc3O)nc2-c2ccccc2O)cc1
MIC [1]: 1 µg/mL (≈ 2.1 µM)

CNC(=O)c1ccc(-n2nc(-c3ccccc3O)nc2-c2ccccc2O)cc1
MIC [1]: 1 µg/mL (≈ 2.59 µM)

O=C(NCCCN1CCOCC1)c1ccc(-n2nc(-c3ccccc3O)nc2-c2ccccc2O)cc1
MIC [1]: 1 µg/mL (≈ 2 µM)

Cc1nccn1CCCNC(=O)c1ccc(-n2nc(-c3ccccc3O)nc2-c2ccccc2O)cc1
MIC [1]: 8 µg/mL (≈ 16.2 µM)

O=C(NCCOc1ccccn1)c1ccc(-n2nc(-c3ccccc3O)nc2-c2ccccc2O)cc1
MIC [1]: 4 µg/mL (≈ 8.1 µM)

O=C1C[C@H](NC(=O)c2ccc(-n3nc(-c4ccccc4O)nc3-c3ccccc3O)cc2)CO1
MIC [1]: > 64 µg/mL

CN(C)CCNC(=O)c1ccc(-n2nc(-c3ccccc3O)nc2-c2ccccc2O)cc1
MIC [1]: 4 µg/mL (≈ 9.02 µM)

CCCNC(=O)c1ccc(-n2nc(-c3ccccc3O)nc2-c2ccccc2O)cc1
MIC [1]: 4 µg/mL (≈ 9.65 µM)

O=C(NCC(=O)N1CCOCC1)c1ccc(-n2nc(-c3ccccc3O)nc2-c2ccccc2O)cc1
MIC [1]: 1 µg/mL (≈ 2 µM)

CC(C)(O)CCNC(=O)c1ccc(-n2nc(-c3ccccc3O)nc2-c2ccccc2O)cc1
MIC [2]: > 64 µg/mL
MIC [1]: 1 µg/mL (≈ 2.18 µM)
MIC [3]: > 64 µg/mL
MIC [4]: < 0.125 µg/mL
MIC [5]: 16 µg/mL (≈ 34.9 µM)
MIC [6]: 4 µg/mL (≈ 8.72 µM)
MIC [7]: 4 µg/mL (≈ 8.72 µM)
Ratio [11]: 2

COC(=O)CCNC(=O)c1ccc(-n2nc(-c3ccccc3O)nc2-c2ccccc2O)cc1
MIC [2]: > 64 µg/mL
MIC [1]: 0.5 µg/mL (≈ 1.09 µM)
MIC [3]: > 64 µg/mL
MIC [4]: < 0.125 µg/mL
MIC [5]: > 64 µg/mL
MIC [6]: 4 µg/mL (≈ 8.72 µM)
MIC [7]: 0.125 µg/mL (≈ 0.273 µM)
Ratio [11]: 4

COCCCNC(=O)c1ccc(-n2nc(-c3ccccc3O)nc2-c2ccccc2O)cc1
MIC [1]: 4 µg/mL (≈ 9 µM)

O=C(NN1CCOCC1)c1ccc(-n2nc(-c3ccccc3O)nc2-c2ccccc2O)cc1
MIC [1]: 2 µg/mL (≈ 4.37 µM)

CCOCCNC(=O)c1ccc(-n2nc(-c3ccccc3O)nc2-c2ccccc2O)cc1
MIC [1]: 1 µg/mL (≈ 2.25 µM)

O=C(NCCN1CCC(F)(F)CC1)c1ccc(-n2nc(-c3ccccc3O)nc2-c2ccccc2O)cc1
MIC [1]: 1 µg/mL (≈ 1.92 µM)

O=C(NCC1CCS(=O)(=O)C1)c1ccc(-n2nc(-c3ccccc3O)nc2-c2ccccc2O)cc1 (configuration not stated)
MIC [1]: 8 µg/mL (≈ 15.9 µM)

CN1CCN(CCNC(=O)c2ccc(-n3nc(-c4ccccc4O)nc3-c3ccccc3O)cc2)CC1
MIC [1]: 1 µg/mL (≈ 2.01 µM)

O=C1C[C@@H](NC(=O)c2ccc(-n3nc(-c4ccccc4O)nc3-c3ccccc3O)cc2)CO1
MIC [1]: > 64 µg/mL

O=C(NCCC1CCOCC1)c1ccc(-n2nc(-c3ccccc3O)nc2-c2ccccc2O)cc1
MIC [2]: 32 µg/mL (≈ 66 µM)
MIC [1]: 0.25 µg/mL (≈ 0.516 µM)
MIC [3]: > 64 µg/mL
MIC [4]: < 0.125 µg/mL
MIC [5]: 32 µg/mL (≈ 66 µM)
MIC [6]: 16 µg/mL (≈ 33 µM)
MIC [7]: 1 µg/mL (≈ 2.06 µM)

O=C(NCCO)c1ccc(-n2nc(-c3ccccc3O)nc2-c2ccccc2O)cc1
MIC [1]: 4 µg/mL (≈ 9.61 µM)

O=C(c1ccc(-n2nc(-c3ccccc3O)nc2-c2ccccc2O)cc1)N1CCC(O)CC1
MIC [1]: 4 µg/mL (≈ 8.76 µM)

O=C(NCCCn1ccnc1)c1ccc(-n2nc(-c3ccccc3O)nc2-c2ccccc2O)cc1
MIC [1]: 8 µg/mL (≈ 16.6 µM)

O=C(NCc1ncccn1)c1ccc(-n2nc(-c3ccccc3O)nc2-c2ccccc2O)cc1
MIC [1]: 4 µg/mL (≈ 8.61 µM)

COCCNC(=O)c1ccc(-n2nc(-c3ccccc3O)nc2-c2ccccc2O)cc1
MIC [2]: > 64 µg/mL
MIC [1]: 0.25 µg/mL (≈ 0.581 µM)
MIC [3]: > 64 µg/mL
MIC [4]: < 0.125 µg/mL
MIC [5]: 8 µg/mL (≈ 18.6 µM)
MIC [6]: 1 µg/mL (≈ 2.32 µM)
MIC [7]: 4 µg/mL (≈ 9.29 µM)

O=C(NCc1cccnc1)c1ccc(-n2nc(-c3ccccc3O)nc2-c2ccccc2O)cc1
MIC [1]: 8 µg/mL (≈ 17.3 µM)

O=C(NCCCO)c1ccc(-n2nc(-c3ccccc3O)nc2-c2ccccc2O)cc1
MIC [1]: 2 µg/mL (≈ 4.65 µM)

O=C1CC(NC(=O)c2ccc(-n3nc(-c4ccccc4O)nc3-c3ccccc3O)cc2)CN1 (configuration not stated)
MIC [1]: 4 µg/mL (≈ 8.78 µM)

O=C(NNc1ccccc1)c1ccc(-n2nc(-c3ccccc3O)nc2-c2ccccc2O)cc1
MIC [1]: 2 µg/mL (≈ 4.32 µM)

O=C(NCc1ccccc1)c1ccc(-n2nc(-c3ccccc3O)nc2-c2ccccc2O)cc1
MIC [1]: 4 µg/mL (≈ 8.65 µM)

CN1CCCC(CNC(=O)c2ccc(-n3nc(-c4ccccc4O)nc3-c3ccccc3O)cc2)C1 (configuration not stated)
MIC [2]: 64 µg/mL (≈ 132 µM)
MIC [1]: 0.25 µg/mL (≈ 0.517 µM)
MIC [3]: > 64 µg/mL
MIC [4]: < 0.125 µg/mL
MIC [5]: 32 µg/mL (≈ 66.2 µM)
MIC [6]: 16 µg/mL (≈ 33.1 µM)
MIC [7]: 32 µg/mL (≈ 66.2 µM)
